SMILES strings stand for the structures.

By Km is commonly meant the concentration of substrate that gives half-maximal velocity. The term IC50 denotes the concentration at which inhibition is half-maximal.

The test system of assay [1] is alpha-glucosidase. Briefly: Kinetics of alpha-glucosidase inhibition. It is filed as biochemical, Saccharomyces cerevisiae. The note with it: for mode of alpha-glucosidase inhibition: decreases in Vmax without changes in Km; for Vmax: substrate PNPG 0.25-2.0 mM.
The subject of assay [2] is advanced glycation end products (AGEs) formation (glycated BSA). The experiment in a line: In vitro advanced glycation end products. It is filed as biochemical. To be noted: read-out: IC50 ± S.D. advanced glycation end product inhibitory activity, 37 °C, seven days in the dark, mean ± SD, n = 3, NA = no inhibitory activity.
The target of assay [3] is alpha-amylase from Aspergillus oryzae (Aspergillus oryzae, UniProt P0C1B3). Briefly: In vitro alpha-amylase inhibition assay. Type of assay: biochemical.
The target of assay [4] is alpha-glucosidase enzyme from Saccharomyces cerevisiae recombinant. Briefly: In vitro alpha-glucosidase inhibition assay. Type of assay: biochemical. The note with it: for IC50: read-out: IC50 ± S.D. alpha-glucosidase, mean ± SD, n = 3.

As for `C[C@H]1O[C@H](O[C@H]2[C@H](O)[C@@H](O)[C@@H](O[C@H]3[C@H](O)[C@@H](O)C(O)O[C@@H]3CO)O[C@@H]2CO)[C@H](O)[C@@H](O)[C@@H]1N[C@H]1C=C(CO)[C@@H](O)[C@H](O)[C@H]1O` (stereo partly drawn) [Acarbose, acarbose, reference compound], in assay [1], the “mode of alpha-glucosidase inhibition” value is listed as “non-competitive”. In assay [1] (inhibitor 200 μM), the Km was found to be 4.98 mM and the Vmax is 0.045 △OD/min. Besides, in assay [1] (inhibitor 400 μM), the Km stood at 4.96 mM and the Vmax was 0.030 △OD/min.

Take `N=C(N)NN` [Aminoguanidine, aminoguanidine, reference compound]: in assay [2], the IC50 worked out at 327 ± 5.95 µM.

Consider `COc1cc(CCc2cc(OC)c(O)c(OC)c2)ccc1O` [Compound 2, moscatilin], for which the results for the IC50 in assay [3], in assay [4] and in assay [2] were 257 ± 9.87 µM, 173 ± 5.84 µM and 168 ± 9.42 µM, respectively.

Consider `COc1cc2c(c(O)c1OC)-c1ccc(O)cc1CC2` [Compound 3, ephemeranthol A], for which the IC50 was determined as 280 ± 9.76 µM in assay [3] and 62.5 ± 2.85 µM in assay [4].

As for `COc1cc(O)cc(CCc2ccc(O)c(OC)c2)c1` [Compound 4, gigantol], the figures for the IC50 in assay [3] and in assay [4] were 332 ± 4.23 µM and 231 ± 11.3 µM, respectively.

Turning to `COc1cc(O)cc2ccc3cccc(O)c3c12` [Compound 5, moscatin], in assay [3] (mean ± SD, n = 3, NA = no inhibitory activity), the “IC50 ± S.D. alpha-amylase” value is listed as “did not inhibit alpha-amylase activity”. The “fold lower alpha-glucosidase IC50 than acarbose” value in assay [4] (IC50 relative to acarbose) is recorded as “approximately 10 fold”. In assay [4], the IC50 worked out at 32.5 ± 1.04 µM. Further, the “fold greater alpha-glucosidase inhibitory potency than acarbose (Ki)” value in assay [1] (Ki relative to acarbose) is given as “approximately 9 fold”. The “mode of alpha-glucosidase inhibition” value in assay [1] is reported as “non-competitive”. Besides, in assay [1] (inhibitor 30 μM), the Km was found to be 1.62 mM and the Vmax is listed as 0.017 △OD/min. In assay [1] (inhibitor 60 μM), the Km was found to be 1.66 mM and the Vmax is recorded as 0.011 △OD/min.

As to `COc1cc(O)c2c(c1)CCc1cc(O)ccc1-2` [Compound 6, lusianthridin], the IC50 in assay [3] amounted to 372.2 ± 2.74 µM; in assay [4] it was 63.89 ± 0.27 µM.

In the case of `Oc1ccc2c(c1)CCc1cc(O)cc(O)c1-2` [Compound 7, 2,4,7-trihydroxy-9,10-dihydrophenanthrene], the results for the IC50 in assay [3], in assay [4] and in assay [2] were 617 ± 11 µM, 422 ± 7 µM and 411 ± 15 µM, respectively.

Source of the values: paper PMC11305242 (Heliyon, 2024).
